PubChem BioAssay (NCI)
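Compound exposure: 48 hours, 5 concentrations, 96-well plates. GI50 is the concentration that inhibits growth by half. At the TGI there is no net growth.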 *1 amine or outer side, *2 acyl side, *3 side chain or, on linkers, in order; H or OH if unused. Where a SMILES comes first, the peptide text is derived from it. Bridges are numbered along the chain shown (N, C = ends). [ ]: non-standard residue; d: D form. The star is where a group is joined. Phe(3,5-F2) = N[C@@H](Cc1cc(F)cc(F)c1)C(=O)O; Pro(4R-Me) = C[C@H]1CN[C@H](C(=O)O)C1; aThr = C[C@H](O)[C@H](N)C(=O)O; Pip = O=C(O)[C@@H]1CCCCN1; X10 = Fc1cc(C2CC2)ccc1N*; CO = O=C([*:1])[*:2]

How the values were obtained:
Assay in all cases: inhibition of tumour cell growth, NCI panel, 48 h
[1] = tested on: HS 578T breast
[2] = tested on: HT29 colon
[3] = tested on: IGROV1 ovarian
[4] = tested on: NCI/ADR-RES ovarian
[5] = tested on: OVCAR-4 ovarian
[6] = tested on: SK-MEL-28 melanoma
[7] = tested on: SNB-19 CNS
[8] = tested on: UACC-257 melanoma
[9] = tested on: UACC-62 melanoma
[10] = tested on: UO-31 renal

| SMILES | TGI [1] | TGI [2] | TGI [3] | TGI [4] | TGI [5] | TGI [6] | TGI [7] | TGI [8] | TGI [9] | TGI [10] | GI50 [1] | GI50 [2] | GI50 [3] | GI50 [4] | GI50 [5] | GI50 [6] | GI50 [7] | GI50 [8] | GI50 [9] | GI50 [10] |
| --- | --- | --- | --- | --- | --- | --- | --- | --- | --- | --- | --- | --- | --- | --- | --- | --- | --- | --- | --- | --- |
| Fc1ccc(NC(=S)SCc2ccc3c(c2)OCO3)cc1F | 88.7 µM | 45.3 µM | 39.6 µM | 75.7 µM | > 100 µM | 13 µM | 39.3 µM | 64 µM | 27.3 µM | 37.9 µM | – | – | – | – | – | – | – | – | – | – |
| CN1CCCCC1CCN1c2ccccc2Sc2ccc(Cl)cc21 (stereo not given) | 8.79 µM | 11.1 µM | 10.6 µM | 7.62 µM | 16 µM | 5.9 µM | 21.5 µM | 5.52 µM | 5.61 µM | 12.7 µM | 2.25 µM | 3.17 µM | 3.24 µM | 2.89 µM | 3.66 µM | 2.23 µM | 6.7 µM | 2.45 µM | 2.16 µM | 2.92 µM |
| C[C@@H]1C[C@H]2C(=O)O[C@@H](C)[C@H](NC(=O)[C@H](Cc3cc(F)cc(F)c3)NC(=O)Nc3ccc(C4CC4)cc3F)C(=O)N3CCC[C@H]3C(=O)N3CCCC[C@H]3C(=O)N[C@@H](C)C(=O)N2C1 ({X10-CO}-[Phe(3,5-F2)][aThr]P[Pip]A[Pro(4R-Me)]; ester 2-C) | 3.94 µM | 7.95 µM | 18.5 µM | 45.6 µM | 3.84 µM | 4.99 µM | > 46.9 µM | 10.7 µM | 4.37 µM | 7.61 µM | 0.0409 µM | 0.0496 µM | 0.149 µM | 0.354 µM | 0.033 µM | 0.0781 µM | 0.0404 µM | 0.0413 µM | 0.0512 µM | 0.161 µM |
| O=C1NC(=NCCc2cccc(F)c2)S/C1=C\c1ccc2ncccc2c1 | > 25 µM | > 25 µM | > 25 µM | > 25 µM | > 25 µM | > 25 µM | > 25 µM | > 25 µM | > 25 µM | > 25 µM | 10.6 µM | 1.05 µM | 5.15 µM | 10.8 µM | > 25 µM | > 21.4 µM | 14.1 µM | 9.61 µM | 5.41 µM | 16.7 µM |
| COc1ccc2c(c1)sc1nc(-c3ccccc3)c(-c3cccc4ccccc34)n12 | > 100 µM | 4.38 µM | > 100 µM | > 100 µM | > 100 µM | > 100 µM | > 100 µM | > 100 µM | > 100 µM | > 100 µM | – | 0.353 µM | 2.07 µM | 0.47 µM | 2.87 µM | 0.417 µM | 0.589 µM | 0.532 µM | 0.414 µM | 1.34 µM |
| COc1cc(/C=N\NC(=O)CN2CCN(c3cc4c(cc3F)c(=O)c(C(=O)N/N=C/c3cc(OC)c(OC)c(OC)c3)cn4C3CC3)CC2)cc(OC)c1OC | – | – | 11.8 µM | > 100 µM | > 100 µM | > 19.8 µM | > 100 µM | – | 0.583 µM | > 100 µM | 0.308 µM | 0.278 µM | 0.365 µM | > 100 µM | 0.379 µM | 0.359 µM | 0.445 µM | 0.36 µM | 0.231 µM | > 100 µM |
| COC(=O)/C=C1\S/C(=N\NC(=O)c2cc3ccc2/C=C\c2ccc(cc2)/C=C\3)N(c2ccccc2)C1=O | > 100 µM | 4.07 µM | 3.27 µM | 10.6 µM | 9.88 µM | 9.87 µM | 4.25 µM | > 100 µM | 4.21 µM | 3.08 µM | 3.49 µM | 1.93 µM | 1.66 µM | 2.92 µM | 3.17 µM | 2.97 µM | 1.95 µM | 5.14 µM | 1.96 µM | 1.53 µM |
| Cc1ccsc1C(=S)Nc1ccc(Cl)c(/C=N/OC(C)(C)C)c1 | > 100 µM | 27.1 µM | > 100 µM | > 100 µM | > 100 µM | > 100 µM | > 100 µM | 69.1 µM | > 100 µM | > 100 µM | – | – | – | – | – | – | – | – | – | – |
| Cc1cc(-c2nc(C(=O)Nc3cc4oc(N5CCOCC5)nc4nc3N3CC[C@@H](O)C3)co2)ccn1 | > 100 µM | > 100 µM | 72.7 µM | > 100 µM | > 100 µM | > 100 µM | > 100 µM | > 100 µM | > 100 µM | 68.7 µM | 22.2 µM | > 100 µM | 12.7 µM | > 100 µM | 32.1 µM | 56.2 µM | 78.8 µM | 88.8 µM | 57 µM | 14.9 µM |
| COc1cccc(-c2cc(-c3cccc(NS(C)(=O)=O)c3)nc(N)c2C#N)c1O | 4.42 µM | – | > 86.3 µM | 2.34 µM | > 100 µM | > 100 µM | > 100 µM | > 100 µM | > 100 µM | > 52.7 µM | 0.0901 µM | 0.0924 µM | 0.0577 µM | 0.154 µM | 0.61 µM | 0.571 µM | 0.486 µM | 0.471 µM | 0.064 µM | 0.208 µM |
| CCC(=O)[C@H](C)[C@@H](OC(=O)[C@H](C)CC)[C@H](C)[C@H]1OC(CC)=C(C)C(=O)[C@@H]1C | 89.3 µM | 32.8 µM | 46.7 µM | 55 µM | > 100 µM | 57.4 µM | > 100 µM | > 100 µM | 27.7 µM | 66.6 µM | 30.3 µM | 13.4 µM | 17.1 µM | 18.6 µM | 29 µM | 21.2 µM | 42.6 µM | 33.2 µM | 13.7 µM | 24 µM |
| CCOC1Oc2ccccc2C(=O)/C1=C/Nc1ccc(C(C)=O)cc1 (stereo not given) | 52 µM | > 100 µM | > 100 µM | 38.6 µM | > 100 µM | > 100 µM | > 100 µM | 46.9 µM | 42 µM | > 100 µM | 17.9 µM | 36.3 µM | 19.5 µM | 15.6 µM | 49 µM | 44.8 µM | 42.2 µM | 19.7 µM | 17.5 µM | 27.9 µM |
| Nc1nc(-n2c(-c3ccccc3)nc3c(Br)cc(Br)cc3c2=O)nnc1-c1cccc(Cl)c1Cl | 41 µM | > 100 µM | 45.9 µM | 6.88 µM | > 100 µM | > 100 µM | > 100 µM | > 100 µM | 25.4 µM | > 100 µM | 5.02 µM | 4.82 µM | 12.9 µM | 2.01 µM | 51.7 µM | > 100 µM | 29.9 µM | 22.3 µM | 7.08 µM | 40.2 µM |
